# Data published in US20140224680A1, “KIT-OF-PARTS” (BOEHRINGER INGELHEIM VETMEDICA GMBH, priority 2013, published 2014).
# Where a name gives a salt, the structure may show the parent alone.
# Assay: lipophilicity profile
# Assay type: physicochemical
# Conditions: neutral pH values versus acidic pH values
# Excerpt: Usually, EC/HPMC films show sustained release behavior more or less independent of pH. […] This, together with the coating applied, is expected to result in a slower release at neutral pH values, sufficient to use the respective multi-layered particles for the application of this drug for the treatment of animals like cats.
smiles,measurement,value
COc1ccc(CCN2CCC[C@H](CN3CCc4cc(OC)c(OC)cc4CC3=O)C2)cc1OC [cilobradine hydrochloride],lipophilicity,slightly more lipophilic at neutral pH values than at acidic pH values
